Measured values taken from patent US20180214411A1, “COMPOSITION COMPRISING SATIETY-INDUCING PARTICLES” (PERORA GMBH, priority 2015, published 2018).

Assay: tryptophan release / dissolution in fasted-state simulated gastric fluid (FaSSGF)
Assay type: physicochemical
Details: 30 mg powder in 22 mL FaSSGF, 37° C., agitated
Protocol: 30 mg of tryptophan powder were suspended in 22 mL FaSSGF at 37° C. and agitated (shaker ST5 from CAT, Germany). Aliquots were removed at time intervals of 5 min, and tryptophan concentration was quantified using absorption measurement at a wavelength of 280 nm in a NanoDrop® 2000 device (Thermo Scientific, USA).

For `N[C@@H](Cc1c[nH]c2ccccc12)C(=O)O` [tryptophan powder, L-Tryptophan], the “time after which tryptophan was quantitatively dissolved” value was 10 min.
